Measurements as given in patent US10385103B2, “Cell-permeable (ICP)-SOCS3 recombinant protein and uses thereof” (CELLIVERY THERAPEUTICS, INC., priority 2014, dated 2019).

System: RAW 264.7 cells
Assay: Quantitative cell-permeability of FITC-labeled aMTD- or rPeptide-fused CRA recombinant proteins (flow cytometry)
Type: cell-based
Procedure, shortened: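 RAW 264.7 cells were exposed to 10 μM FITC-labeled recombinant proteins, consisting of a non-functional cargo fused to aMTD or rPeptide sequences, for 1 hour at 37° C. Cells were washed three times in cold PBS and treated with 0.25% tripsin/EDTA for 20 minutes at 37° C. to strip surface-bound protein, then uptake was measured by flow cytometry.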

[1] = cell-permeability of aMTD-fused CRA recombinant protein relative to negative control (A: rP38)
[2] = cell-permeability of aMTD-fused CRA recombinant protein relative to reference CPP (B: MTM12)
[3] = cell-permeability of aMTD-fused CRA recombinant protein relative to reference CPP (C: MTD85)
[4] = cell-permeability relative to negative control rP38 (A type), aMTD-fused CRA recombinant protein, 10 μM FITC-labeled, 1 hour, 37° C., RAW 264.7 cells
[5] = cell-permeability relative to reference CPP MTD85 (C type), aMTD-fused CRA recombinant protein, 10 μM FITC-labeled, 1 hour, 37° C., RAW 264.7 cells
[6] = cell-permeability relative to reference CPP MTM12 (B type), aMTD-fused CRA recombinant protein, 10 μM FITC-labeled, 1 hour, 37° C., RAW 264.7 cells

Substance | Relative Ratio (Fold) A [1] [Fold] | Relative Ratio (Fold) B [2] [Fold] | Relative Ratio (Fold) C [3] [Fold] | Relative Ratio (Fold) A [4] [Fold] | Relative Ratio (Fold) C [5] [Fold] | Relative Ratio (Fold) B [6] [Fold] | Relative Ratio to aMTD AVE (cell-permeability of rPeptide-fused CRA recombinant protein relative to average of 240 aMTDs, 10 μM FITC-labeled, 1 hour, 37° C., RAW 264.7 cells)
622 (ALIVLAAPVAVP; Amino acid Sequence of aMTD622) [compound 622] | 10.6 | 7.1 | 3.6 | 10.6 | 3.6 | 7.1 | 
623 (VAAAIALPAIVP; Amino acid Sequence of aMTD623) [compound 623] |  |  |  | 0.8 | 0.3 | 0.6 | 
625 (ILAAAAAPLIVP; Amino acid Sequence of aMTD625) [compound 625] | 20.3 | 13.9 | 7.0 |  |  |  | 
635 (GSTGGSQQNNQY; Amino acid Sequence of rPeptide ID 635) [compound 635] |  |  |  |  |  |  | 0.07
643 (LALVLAAPAIVP; Amino acid Sequence of aMTD643) [compound 643] | 11.8 | 7.9 | 4.0 |  |  |  | 
645 (ALAVVALPAIVP; Amino acid Sequence of aMTD645) [compound 645] |  |  |  | 4.3 | 1.5 | 2.9 | 
661 (AAILAPIVAALP; Amino acid Sequence of aMTD661) [compound 661] | 21.4 | 14.3 | 7.2 |  |  |  | 
664 (ILIAIAIPAAAP; Amino acid Sequence of aMTD664) [compound 664] |  |  |  | 5.7 | 1.9 | 3.8 | 
665 (LAIVLAAPVAVP; Amino acid Sequence of aMTD665) [compound 665] | 14.7 | 9.9 | 5.0 |  |  |  | 
666 (AAIAIIAPAIVP; Amino acid Sequence of aMTD666) [compound 666] | 14.7 | 9.9 | 5.0 |  |  |  | 
667 (LAVAIVAPALVP; Amino acid Sequence of aMTD667) [compound 667] |  |  |  | 6.9 | 2.3 | 4.6 | 
683 (LAIVLAAPAVLP; Amino acid Sequence of aMTD683) [compound 683] |  |  |  | 5.5 | 1.9 | 3.2 | 
684 (AAIVLALPAVLP; Amino acid Sequence of aMTD684) [compound 684] |  |  |  | 3.5 | 1.2 | 2.1 | 
685 (ALLVAVLPAALP; Amino acid Sequence of aMTD685) [compound 685] | 10.2 | 5.9 | 3.4 |  |  |  | 
686 (AALVAVLPVALP; Amino acid Sequence of aMTD686) [compound 686] | 19.5 | 13.1 | 6.6 |  |  |  | 
